Results on two compounds are retold here after BindingDB's records for doi:10.1111/j.1476-5381.1995.tb16628.x (Syntex Discovery Research, 1995).

The target in experiment [1] is T1, Alpha-2A adrenergic receptor [16-465] (Rattus norvegicus, UniProt P22909).
T1 construct: 16-465
T1 sequence (P22909 whole entry): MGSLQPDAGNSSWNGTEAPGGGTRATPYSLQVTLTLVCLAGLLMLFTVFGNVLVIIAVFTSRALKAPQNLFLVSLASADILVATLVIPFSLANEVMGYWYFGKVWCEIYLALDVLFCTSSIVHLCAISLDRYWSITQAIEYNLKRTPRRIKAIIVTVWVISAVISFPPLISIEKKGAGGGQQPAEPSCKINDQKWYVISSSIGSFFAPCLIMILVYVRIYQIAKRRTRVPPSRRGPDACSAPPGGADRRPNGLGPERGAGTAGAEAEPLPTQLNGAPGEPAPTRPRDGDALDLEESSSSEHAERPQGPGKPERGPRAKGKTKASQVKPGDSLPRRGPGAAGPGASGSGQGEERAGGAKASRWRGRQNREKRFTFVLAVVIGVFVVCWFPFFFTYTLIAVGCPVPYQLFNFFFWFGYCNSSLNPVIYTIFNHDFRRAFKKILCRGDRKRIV

Experiment [2] has as its target 5-hydroxytryptamine receptor 2A (Rattus norvegicus, UniProt P14842).
For experiment [3], the target named is T2, 5-hydroxytryptamine receptor 1A (Rattus norvegicus, UniProt P19327).
T2 sequence (P19327 whole entry): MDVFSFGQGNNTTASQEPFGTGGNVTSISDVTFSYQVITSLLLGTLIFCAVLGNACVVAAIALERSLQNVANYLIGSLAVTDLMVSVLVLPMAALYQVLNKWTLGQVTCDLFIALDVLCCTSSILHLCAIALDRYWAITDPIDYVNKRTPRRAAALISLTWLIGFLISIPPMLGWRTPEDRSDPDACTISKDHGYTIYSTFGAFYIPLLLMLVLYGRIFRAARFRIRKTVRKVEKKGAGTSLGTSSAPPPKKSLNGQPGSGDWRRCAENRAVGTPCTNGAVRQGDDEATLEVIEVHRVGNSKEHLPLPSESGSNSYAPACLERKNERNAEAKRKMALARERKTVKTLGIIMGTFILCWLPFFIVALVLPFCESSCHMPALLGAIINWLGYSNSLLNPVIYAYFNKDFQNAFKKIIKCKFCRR

For experiment [4], the target named is T3, Alpha-1B adrenergic receptor (Rattus norvegicus, UniProt P15823).
T3 sequence (P15823 whole entry): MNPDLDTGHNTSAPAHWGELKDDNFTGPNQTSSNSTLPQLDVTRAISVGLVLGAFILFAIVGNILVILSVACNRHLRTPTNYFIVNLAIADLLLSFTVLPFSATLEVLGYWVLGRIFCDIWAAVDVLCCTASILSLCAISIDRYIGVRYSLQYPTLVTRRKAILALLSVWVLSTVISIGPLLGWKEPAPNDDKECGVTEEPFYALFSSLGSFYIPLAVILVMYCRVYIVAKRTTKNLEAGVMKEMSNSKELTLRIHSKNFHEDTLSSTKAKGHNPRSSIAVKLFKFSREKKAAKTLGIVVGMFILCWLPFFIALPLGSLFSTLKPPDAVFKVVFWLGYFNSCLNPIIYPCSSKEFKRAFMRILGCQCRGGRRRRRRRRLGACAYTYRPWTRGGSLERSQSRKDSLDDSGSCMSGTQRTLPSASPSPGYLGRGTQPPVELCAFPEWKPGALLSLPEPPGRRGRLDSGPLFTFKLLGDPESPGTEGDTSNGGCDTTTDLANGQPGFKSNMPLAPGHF

In experiment [5] the target is Sigma non-opioid intracellular receptor 1 (Cavia porcellus, UniProt Q60492).
Experiment [6] deals with Beta-1 adrenergic receptor (Rattus norvegicus, UniProt P18090).
The target of experiment [7] is T4, Alpha-1A adrenergic receptor (Rattus norvegicus, UniProt P43140).
T4 sequence (P43140 whole entry): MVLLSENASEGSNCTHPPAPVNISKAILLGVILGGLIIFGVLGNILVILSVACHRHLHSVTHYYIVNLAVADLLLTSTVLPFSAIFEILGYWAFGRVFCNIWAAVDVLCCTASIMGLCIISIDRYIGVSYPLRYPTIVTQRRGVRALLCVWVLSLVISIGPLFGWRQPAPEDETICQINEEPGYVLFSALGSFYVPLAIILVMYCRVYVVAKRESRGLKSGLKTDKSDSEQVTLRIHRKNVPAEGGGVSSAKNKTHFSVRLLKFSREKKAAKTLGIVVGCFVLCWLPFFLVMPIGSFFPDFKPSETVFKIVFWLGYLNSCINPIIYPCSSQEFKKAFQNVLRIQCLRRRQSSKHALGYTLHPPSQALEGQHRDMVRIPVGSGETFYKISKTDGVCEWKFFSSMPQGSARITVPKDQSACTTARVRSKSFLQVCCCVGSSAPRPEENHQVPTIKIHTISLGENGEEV

For experiment [8], the target named is T5, 5-hydroxytryptamine receptor 2C (Rattus norvegicus, UniProt P08909).
T5 sequence (P08909 whole entry): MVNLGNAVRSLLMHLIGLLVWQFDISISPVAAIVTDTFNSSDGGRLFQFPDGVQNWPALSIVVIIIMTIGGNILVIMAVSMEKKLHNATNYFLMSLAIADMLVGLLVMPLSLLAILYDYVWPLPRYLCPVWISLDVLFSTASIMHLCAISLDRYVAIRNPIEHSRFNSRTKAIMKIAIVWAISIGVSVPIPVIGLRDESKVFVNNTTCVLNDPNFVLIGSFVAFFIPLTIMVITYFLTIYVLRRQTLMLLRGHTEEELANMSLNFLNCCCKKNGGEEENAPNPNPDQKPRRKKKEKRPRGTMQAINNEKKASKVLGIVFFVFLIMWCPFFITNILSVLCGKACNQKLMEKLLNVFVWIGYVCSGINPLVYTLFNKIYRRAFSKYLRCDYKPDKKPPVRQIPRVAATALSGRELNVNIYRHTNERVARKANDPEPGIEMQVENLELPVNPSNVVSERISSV

The target in experiment [9] is T6, 5-hydroxytryptamine receptor 3A (Rattus norvegicus, UniProt P35563).
T6 sequence (P35563 whole entry): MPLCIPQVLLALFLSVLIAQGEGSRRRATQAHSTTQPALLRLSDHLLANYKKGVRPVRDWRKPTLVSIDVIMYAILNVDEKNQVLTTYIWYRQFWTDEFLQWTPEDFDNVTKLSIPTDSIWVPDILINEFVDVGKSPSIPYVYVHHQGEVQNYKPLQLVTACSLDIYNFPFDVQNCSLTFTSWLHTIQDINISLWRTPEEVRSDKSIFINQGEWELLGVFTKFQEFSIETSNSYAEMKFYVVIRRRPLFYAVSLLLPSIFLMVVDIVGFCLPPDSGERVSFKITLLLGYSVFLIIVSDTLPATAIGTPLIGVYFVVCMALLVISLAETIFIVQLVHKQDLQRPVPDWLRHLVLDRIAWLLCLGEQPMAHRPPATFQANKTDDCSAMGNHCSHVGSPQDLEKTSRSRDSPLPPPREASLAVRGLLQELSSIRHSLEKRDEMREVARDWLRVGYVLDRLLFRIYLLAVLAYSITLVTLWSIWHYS

Experiment [10] has as its target 5-hydroxytryptamine receptor 4 (Cavia porcellus, UniProt O70528).
Experiment [11] addresses T7, Alpha-2B adrenergic receptor (Rattus norvegicus, UniProt P19328).
T7 sequence (P19328 whole entry): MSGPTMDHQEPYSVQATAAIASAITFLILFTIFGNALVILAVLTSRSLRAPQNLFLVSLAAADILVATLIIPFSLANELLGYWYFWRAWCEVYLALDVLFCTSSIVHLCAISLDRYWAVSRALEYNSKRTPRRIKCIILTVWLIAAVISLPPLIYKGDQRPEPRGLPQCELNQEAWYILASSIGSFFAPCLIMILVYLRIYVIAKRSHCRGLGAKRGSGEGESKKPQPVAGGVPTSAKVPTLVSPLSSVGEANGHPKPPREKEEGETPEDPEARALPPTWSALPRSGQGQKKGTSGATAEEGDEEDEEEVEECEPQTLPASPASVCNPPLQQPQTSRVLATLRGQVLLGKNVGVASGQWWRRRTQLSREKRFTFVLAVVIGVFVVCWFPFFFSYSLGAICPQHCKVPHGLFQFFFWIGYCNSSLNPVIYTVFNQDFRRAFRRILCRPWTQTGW

For experiment [12], the target named is T8, Muscarinic acetylcholine receptor M2 (Rattus norvegicus, UniProt P10980).
T8 sequence (P10980 whole entry): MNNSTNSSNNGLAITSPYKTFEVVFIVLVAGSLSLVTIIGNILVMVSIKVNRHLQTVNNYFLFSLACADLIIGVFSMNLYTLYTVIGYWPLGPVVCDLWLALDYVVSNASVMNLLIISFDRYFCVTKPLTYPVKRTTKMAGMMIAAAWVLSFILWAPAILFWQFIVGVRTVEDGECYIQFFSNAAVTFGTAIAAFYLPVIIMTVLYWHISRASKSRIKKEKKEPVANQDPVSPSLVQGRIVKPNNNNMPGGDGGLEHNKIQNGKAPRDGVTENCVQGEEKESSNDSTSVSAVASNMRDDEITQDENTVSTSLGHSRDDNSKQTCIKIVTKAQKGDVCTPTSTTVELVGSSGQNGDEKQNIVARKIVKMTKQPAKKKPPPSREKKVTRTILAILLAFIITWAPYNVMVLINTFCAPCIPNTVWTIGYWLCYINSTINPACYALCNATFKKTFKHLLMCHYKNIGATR

Experiment [13] deals with T9, Muscarinic acetylcholine receptor M1 (Rattus norvegicus, UniProt P08482).
T9 sequence (P08482 whole entry): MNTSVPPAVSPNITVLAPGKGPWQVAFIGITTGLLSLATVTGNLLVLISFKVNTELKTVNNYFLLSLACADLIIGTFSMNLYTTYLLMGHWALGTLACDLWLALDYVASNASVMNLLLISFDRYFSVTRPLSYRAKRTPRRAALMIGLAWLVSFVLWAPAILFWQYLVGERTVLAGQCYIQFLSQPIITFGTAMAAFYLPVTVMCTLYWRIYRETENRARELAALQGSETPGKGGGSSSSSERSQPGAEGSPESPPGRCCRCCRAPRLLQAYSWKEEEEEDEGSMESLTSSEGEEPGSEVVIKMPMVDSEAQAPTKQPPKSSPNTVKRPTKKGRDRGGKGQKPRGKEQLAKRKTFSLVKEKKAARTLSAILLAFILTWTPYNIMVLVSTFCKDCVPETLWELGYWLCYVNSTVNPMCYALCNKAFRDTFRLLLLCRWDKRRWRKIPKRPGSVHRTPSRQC

For a further experiment, the target named is D(1A) dopamine receptor (Macaca mulatta, UniProt O77680).
The next experiment has as its target D(2) dopamine receptor (Sus scrofa, UniProt F1SM69).
Experiment [14] concerns the target Beta-2 adrenergic receptor (Rattus norvegicus, UniProt P10608).

Structures are written as SMILES. Where “and” joins values, the source holds several entries; their conditions need not be identical. Identical values can stand only once.

Chain of Sigma non-opioid intracellular receptor 1 (Q60492 whole entry): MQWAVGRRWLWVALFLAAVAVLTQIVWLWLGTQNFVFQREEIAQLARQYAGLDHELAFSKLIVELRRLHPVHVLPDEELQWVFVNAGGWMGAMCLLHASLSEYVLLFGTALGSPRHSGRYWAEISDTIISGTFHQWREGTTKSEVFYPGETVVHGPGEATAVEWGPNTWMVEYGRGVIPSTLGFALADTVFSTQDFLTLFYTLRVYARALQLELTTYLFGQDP
Chain of 5-hydroxytryptamine receptor 2A (P14842 whole entry): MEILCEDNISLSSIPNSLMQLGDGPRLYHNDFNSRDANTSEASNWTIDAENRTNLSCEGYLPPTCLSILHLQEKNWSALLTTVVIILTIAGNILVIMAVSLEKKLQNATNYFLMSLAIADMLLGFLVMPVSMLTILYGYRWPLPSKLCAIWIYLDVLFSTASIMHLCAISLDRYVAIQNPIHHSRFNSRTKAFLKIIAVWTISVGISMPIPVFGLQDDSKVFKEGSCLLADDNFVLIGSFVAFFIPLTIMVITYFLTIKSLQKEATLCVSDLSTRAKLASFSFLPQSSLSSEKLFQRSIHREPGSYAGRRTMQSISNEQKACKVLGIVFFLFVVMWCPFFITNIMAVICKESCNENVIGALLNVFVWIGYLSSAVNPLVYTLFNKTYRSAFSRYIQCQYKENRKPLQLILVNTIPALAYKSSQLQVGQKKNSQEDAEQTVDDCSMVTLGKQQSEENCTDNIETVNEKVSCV
Chain of D(2) dopamine receptor (F1SM69 whole entry): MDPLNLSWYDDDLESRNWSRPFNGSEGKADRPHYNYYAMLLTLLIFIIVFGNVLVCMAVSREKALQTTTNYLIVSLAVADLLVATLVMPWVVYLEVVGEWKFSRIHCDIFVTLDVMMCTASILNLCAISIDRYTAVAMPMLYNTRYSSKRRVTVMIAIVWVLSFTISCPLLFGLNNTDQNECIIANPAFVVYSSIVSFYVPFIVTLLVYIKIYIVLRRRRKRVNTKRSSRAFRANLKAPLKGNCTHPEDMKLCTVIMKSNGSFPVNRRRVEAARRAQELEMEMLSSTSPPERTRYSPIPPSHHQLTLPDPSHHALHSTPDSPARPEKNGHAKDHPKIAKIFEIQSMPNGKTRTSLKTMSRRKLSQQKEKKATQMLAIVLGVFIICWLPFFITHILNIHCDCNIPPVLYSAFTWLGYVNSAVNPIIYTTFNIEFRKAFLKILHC
Chain of 5-hydroxytryptamine receptor 4 (O70528 whole entry): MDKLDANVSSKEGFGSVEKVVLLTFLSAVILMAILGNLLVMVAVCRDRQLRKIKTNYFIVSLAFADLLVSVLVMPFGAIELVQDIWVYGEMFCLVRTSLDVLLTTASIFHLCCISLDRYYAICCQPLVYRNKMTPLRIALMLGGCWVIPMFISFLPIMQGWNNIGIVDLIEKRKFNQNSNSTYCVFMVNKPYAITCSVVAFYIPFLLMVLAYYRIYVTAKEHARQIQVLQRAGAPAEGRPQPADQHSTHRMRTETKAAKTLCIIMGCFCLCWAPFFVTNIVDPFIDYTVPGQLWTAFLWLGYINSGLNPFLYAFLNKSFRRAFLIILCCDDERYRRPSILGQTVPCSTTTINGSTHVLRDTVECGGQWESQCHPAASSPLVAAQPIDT
Chain of D(1A) dopamine receptor (O77680 whole entry): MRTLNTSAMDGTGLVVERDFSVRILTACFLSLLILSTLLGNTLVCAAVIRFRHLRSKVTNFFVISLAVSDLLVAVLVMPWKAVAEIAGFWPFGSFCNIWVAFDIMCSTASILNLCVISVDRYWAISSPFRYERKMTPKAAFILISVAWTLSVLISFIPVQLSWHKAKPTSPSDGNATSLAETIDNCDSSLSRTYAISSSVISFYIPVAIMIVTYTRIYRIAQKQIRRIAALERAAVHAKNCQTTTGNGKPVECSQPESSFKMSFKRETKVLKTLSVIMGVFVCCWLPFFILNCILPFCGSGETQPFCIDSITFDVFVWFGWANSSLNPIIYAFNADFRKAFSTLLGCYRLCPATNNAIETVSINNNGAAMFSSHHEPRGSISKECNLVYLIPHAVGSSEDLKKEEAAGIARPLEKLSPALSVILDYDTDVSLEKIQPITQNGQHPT
Chain of Beta-1 adrenergic receptor (P18090 whole entry): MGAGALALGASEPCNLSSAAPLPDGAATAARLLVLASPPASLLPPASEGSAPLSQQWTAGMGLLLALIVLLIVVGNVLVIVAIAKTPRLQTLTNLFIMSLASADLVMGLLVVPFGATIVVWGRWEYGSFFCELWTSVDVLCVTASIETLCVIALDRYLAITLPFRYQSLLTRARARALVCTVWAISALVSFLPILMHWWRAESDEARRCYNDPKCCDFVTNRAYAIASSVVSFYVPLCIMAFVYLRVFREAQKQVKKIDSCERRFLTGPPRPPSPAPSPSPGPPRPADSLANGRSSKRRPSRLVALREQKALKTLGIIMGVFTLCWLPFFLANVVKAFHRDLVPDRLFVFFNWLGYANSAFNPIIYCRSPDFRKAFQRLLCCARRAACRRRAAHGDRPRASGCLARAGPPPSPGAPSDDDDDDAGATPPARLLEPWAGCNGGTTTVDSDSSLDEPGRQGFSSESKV
Chain of Beta-2 adrenergic receptor (P10608 whole entry): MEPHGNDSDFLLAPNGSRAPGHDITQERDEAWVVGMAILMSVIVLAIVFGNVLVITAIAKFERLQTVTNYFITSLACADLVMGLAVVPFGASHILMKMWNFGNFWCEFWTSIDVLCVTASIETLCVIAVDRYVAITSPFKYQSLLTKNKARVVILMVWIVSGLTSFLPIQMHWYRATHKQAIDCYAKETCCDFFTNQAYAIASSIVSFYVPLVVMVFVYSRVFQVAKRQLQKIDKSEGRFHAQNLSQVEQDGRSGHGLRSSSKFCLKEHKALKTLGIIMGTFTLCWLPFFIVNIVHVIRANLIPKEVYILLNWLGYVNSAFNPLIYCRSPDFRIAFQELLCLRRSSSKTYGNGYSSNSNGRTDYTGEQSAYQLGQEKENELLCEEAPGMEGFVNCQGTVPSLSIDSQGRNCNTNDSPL

Turning to `COc1cc(N)c(Cl)cc1C(=O)CCC1CCN(CCNS(C)(=O)=O)CC1` [CAS_133075], the Ki was over 10000 nM in [1]; 1000 nM in experiment [2]; 2000 nM in experiment [3]; over 10000 nM in experiment [4]; 12.6 nM and 50.1 nM in experiment [5]; over 10000 nM in experiment [6]. Besides, the inhibition constant Ki in [7] is 398 nM; in [8], 2000 nM; in experiment [9], 2510 nM and 1260 nM; in [10], 1.58 nM; in experiment [11] it was over 10000 nM; in experiment [12], over 10000 nM. Moreover, the Ki (in experiment [13]; at D(1A) dopamine receptor; on D(2) dopamine receptor; in experiment [14]) was over 10000 nM in each case.

For `CCCCN1CCC(CCC(=O)c2cc(Cl)c(N)cc2OC)CC1` [CAS_183782], the inhibition constant (Ki) is over 10000 nM in experiment [1]; 501 nM in [2]; 1260 nM in [4]; 1.25 nM and 10 nM in experiment [5]; over 10000 nM in [6]; 200 nM in experiment [7]. Moreover, the Ki in experiment [8] is 794 nM; in experiment [9], 398 nM and 1260 nM; in experiment [10], 1.99 nM; in experiment [11] it was over 10000 nM; in [12], 5010 nM; in experiment [13], 6310 nM. In addition, the Ki (on D(1A) dopamine receptor; on D(2) dopamine receptor; in experiment [14]) was over 10000 nM in each case.

Broadly, the Ki is a measure of affinity in units of concentration, obtained from inhibition or displacement.
